According to paper PMC10874388, “Cyclic peptides discriminate BCL-2 and its clinical mutants from BCL-XL by engaging a single-residue discrepancy” (Nature Communications, 2024):
Values joined by “and” are separate entries in the source; they are usually repeats but may differ in a detail not shown here. Equal entries are not always repeated.

How the values were obtained:
Type in all cases: cell-based
[1] = system: A549 cells overexpressing BCL-2 WT; assay: Cell viability assay, A549 stably overexpressing BCL-2 WT; conditions: for luminescence reading (raw, replicate wells) / luminescence reading, everage / inhibition rate: BCL2-WT A549; for luminescence reading, everage: mean of 6 wells
Protocol: Cell viability was measured using CellTiter-Glo® 2.0 Reagent (Promega, G9242). […] After different inhibitors were added into serum-free medium and cultured for 4 h (RS4:11 for 6 h), FBS were supplemented to 10% and then incubated totally for 24 h or 48 h. Finally, the IC50 values were calculated based on measurements using a microplate reader (Thermo, Varioskan LUX). Statistical analysis was performed using software GraphPad Prism 7.0.
Lentivirus packaging vectors pMDLg/pRRE, pRSV-Rev, and pVSV-G were obtained from Prof. Han Jiahuai’s lab (Xiamen University). Lentiviruses were produced using 3rd-generation lentivirus packaging plasmids transiently transfected into HEK293T cells with the constructs of interest using 0.25 M CaCl2. Media was changed after 16 h, and supernatants containing infectious virus particles were harvested 24 h later. A second viral harvest was made following a further 24 h incubation with fresh media. Virus containing supernatant was filtered through a […], and stored at 4 °C or −80 °C until being used. Typically, A549 cells were seeded into 10 cm cell culture dishes at 4 ~ 8 × 10^5 cells/cm^2. An equivalent volume of virus containing culture medium was added along with polybrene (Sigma) to a final concentration of 10 µg/mL. Cells were incubated at 37 °C for 20 h, before they were washed and resuspended in fresh culture media. The expression level of BCL-2 was measured by qPCR and western blot methods.

RS4:11 cells = assay: Cell viability assay (CellTiter-Glo), RS4:11; conditions: for raw luminescence reading / inhibition rate: RS4:11; for raw luminescence reading: listed as ABT199
In short: (§1)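 Compounds added in serum-free medium for 4 h (RS4:11: 6 h), then FBS brought to 10% and incubation continued to 24 h or 48 h total at 37 °C, 5% CO2. Viability by CellTiter-Glo 2.0 luminescence; IC50 calculated.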

Daudi cells = assay: Cell viability assay (CellTiter-Glo), Daudi; conditions: for inhibition relative to 0 uM control, replicates / raw viability signal, replicates: Daudi, listed as ABT199
In short: as §1

Question: Which results are given for `CC1(C)CCC(CN2CCN(c3ccc(C(=O)NS(=O)(=O)c4ccc(NCC5CCOCC5)c([N+](=O)[O-])c4)c(Oc4cnc5[nH]ccc5c4)c3)CC2)=C(c2ccc(Cl)cc2)C1` [venetoclax]?
Answer: luminescence reading (raw, replicate wells) ([1]; ABT-199 0.390625 uM): 644100 and 629100 and 637900 and 643500 and 647000 and 655800; luminescence reading, everage ([1]; ABT-199 0.390625 uM): 642900; inhibition rate ([1]; ABT-199 0.390625 uM, replicate wells): -3.29% and -4.73% and -5.65% and -6% and -8% and -5.55%; luminescence reading (raw, replicate wells) ([1]; ABT-199 0.78125 uM): 567400 and 598600 and 586100 and 654900 and 608300 and 579900; luminescence reading, everage ([1]; ABT-199 0.78125 uM): 599200; inhibition rate ([1]; ABT-199 0.78125 uM, replicate wells): 1.72% and 3.77% and -7.52% and 0.129% and 5% and 1.62%; luminescence reading (raw, replicate wells) ([1]; ABT-199 1.5625 uM): 298800 and 328200 and 290000 and 313400 and 302200 and 296200; luminescence reading, everage ([1]; ABT-199 1.5625 uM): 304800; inhibition rate ([1]; ABT-199 1.5625 uM, replicate wells): 52% and 49% and 50% and 51%; luminescence reading (raw, replicate wells) ([1]; ABT-199 3.125 uM): 264200 and 271400 and 265500 and 281900 and 276200 and 275000; luminescence reading, everage ([1]; ABT-199 3.125 uM): 272367; inhibition rate ([1]; ABT-199 3.125 uM, replicate wells): 56% and 54%; luminescence reading (raw, replicate wells) ([1]; ABT-199 6.25 uM): 239200 and 242900 and 250800 and 260000 and 262000 and 251900; luminescence reading, everage ([1]; ABT-199 6.25 uM): 251133; inhibition rate ([1]; ABT-199 6.25 uM, replicate wells): 59% and 57%; luminescence reading (raw, replicate wells) ([1]; ABT-199 12.5 uM): 192300 and 201400 and 189800 and 189400 and 190500 and 194300; luminescence reading, everage ([1]; ABT-199 12.5 uM): 192950; inhibition rate ([1]; ABT-199 12.5 uM, replicate wells): 69% and 68%; luminescence reading (raw, replicate wells) ([1]; ABT-199 25 uM): 124100 and 129200 and 123800 and 128900 and 121100 and 127700; luminescence reading, everage ([1]; ABT-199 25 uM): 125800; inhibition rate ([1]; ABT-199 25 uM, replicate wells): 80%; luminescence reading (raw, replicate wells) ([1]; ABT-199 50 uM): 61440 and 62870 and 63340 and 62270 and 63280 and 66020; luminescence reading, everage ([1]; ABT-199 50 uM): 63203; inhibition rate ([1]; ABT-199 50 uM, replicate wells): 89%; luminescence reading (raw, replicate wells) ([1]; ABT-199 100 uM): 19300 and 21810 and 21770 and 21930 and 21040 and 20180; luminescence reading, everage ([1]; ABT-199 100 uM): 21005; inhibition rate ([1]; ABT-199 100 uM, replicate wells): 97%; luminescence reading (raw, replicate wells) ([1]; ABT-199 200 uM): 4077 and 3911 and 4092 and 4449 and 4173 and 4465; luminescence reading, everage ([1]; ABT-199 200 uM): 4195; inhibition at 1.5625 µM ([1]; Homo sapiens, A549, BCL2-WT A549, ABT-199 1.5625 uM, replicate wells, read-out: inhibition rate): 46%; inhibition at 3.125 µM ([1]; Homo sapiens, A549, BCL2-WT A549, ABT-199 3.125 uM, replicate wells, read-out: inhibition rate): 55%; inhibition at 6.25 µM ([1]; Homo sapiens, A549, BCL2-WT A549, ABT-199 6.25 uM, replicate wells, read-out: inhibition rate): 60%; inhibition at 12.5 µM ([1]; Homo sapiens, A549, BCL2-WT A549, ABT-199 12.5 uM, replicate wells, read-out: inhibition rate): 67%; inhibition at 25 µM ([1]; Homo sapiens, A549, BCL2-WT A549, ABT-199 25 uM, replicate wells, read-out: inhibition rate): 79%; inhibition at 50 µM ([1]; Homo sapiens, A549, BCL2-WT A549, ABT-199 50 uM, replicate wells, read-out: inhibition rate): 90%; inhibition at 100 µM ([1]; Homo sapiens, A549, BCL2-WT A549, ABT-199 100 uM, replicate wells, read-out: inhibition rate): 96%; inhibition at 200 µM ([1]; Homo sapiens, A549, BCL2-WT A549, ABT-199 200 uM, replicate wells, read-out: inhibition rate): 99%; IC50 ([1]; Homo sapiens, A549, 48 h, CellTiter-Glo, n = 6): 2.5 ± 0.2 µM; inhibition at 0.000390625 µM (RS4:11 cells; Homo sapiens, RS4-11, RS4:11, 0.390625 nM, single wells, read-out: inhibition rate): 27%; inhibition at 0.00078125 µM (RS4:11 cells; Homo sapiens, RS4-11, RS4:11, 0.78125 nM, single wells, read-out: inhibition rate): 67%; inhibition at 0.0015625 µM (RS4:11 cells; Homo sapiens, RS4-11, RS4:11, 1.5625 nM, single wells, read-out: inhibition rate): 95%; inhibition at 0.003125 µM (RS4:11 cells; Homo sapiens, RS4-11, RS4:11, 3.125 nM, single wells, read-out: inhibition rate): 98%; inhibition at 0.00625 µM (RS4:11 cells; Homo sapiens, RS4-11, RS4:11, 6.25 nM, single wells, read-out: inhibition rate): 100%; inhibition at 0.0125 µM (RS4:11 cells; Homo sapiens, RS4-11, RS4:11, 12.5 nM, single wells, read-out: inhibition rate): 100%; inhibition at 0.025 µM (RS4:11 cells; Homo sapiens, RS4-11, RS4:11, 25 nM, single wells, read-out: inhibition rate): 100%; inhibition at 0.05 µM (RS4:11 cells; Homo sapiens, RS4-11, RS4:11, 50 nM, single wells, read-out: inhibition rate): 100%; inhibition at 0.1 µM (RS4:11 cells; Homo sapiens, RS4-11, RS4:11, 100 nM, single wells, read-out: inhibition rate): 100%; inhibition at 0.2 µM (RS4:11 cells; Homo sapiens, RS4-11, RS4:11, 200 nM, single wells, read-out: inhibition rate): 100%; IC50 (RS4:11 cells; Homo sapiens, RS4-11, 48 h treatment, CellTiter-Glo, small-molecule inhibitors, cells marked (nM)): 0.5 ± 0.1 nM; raw luminescence reading (RS4:11 cells; 0.012207 nM, single wells): 473100 and 440900 and 421900 and 464800 and 440500 and 404600; raw luminescence reading (RS4:11 cells; 0.0244141 nM, single wells): 468000 and 467900 and 427500 and 463600 and 451400 and 411500; raw luminescence reading (RS4:11 cells; 0.0488281 nM, single wells): 464300 and 463300 and 420200 and 448100 and 441000 and 405800; raw luminescence reading (RS4:11 cells; 0.0976562 nM, single wells): 446400 and 453400 and 406000 and 426100 and 420400 and 382600; raw luminescence reading (RS4:11 cells; 0.195312 nM, single wells): 418900 and 420900 and 384800 and 390800 and 394900 and 350200; raw luminescence reading (RS4:11 cells; 0.390625 nM, single wells): 317400 and 330800 and 297800 and 297300 and 296900 and 256100; inhibition rate (RS4:11 cells; 0.390625 nM, single wells, listed as ABT199, 0.000390625 µM): 24% and 32% and 41%; raw luminescence reading (RS4:11 cells; 0.78125 nM, single wells): 141300 and 149000 and 125700 and 134100 and 136000 and 117900; inhibition rate (RS4:11 cells; 0.78125 nM, single wells, listed as ABT199, 0.00078125 µM): 66% and 71% and 69% and 73%; raw luminescence reading (RS4:11 cells; 1.5625 nM, single wells): 23070 and 25650 and 25890 and 29130 and 27640 and 29210; inhibition rate (RS4:11 cells; 1.5625 nM, single wells, listed as ABT199, 0.0015625 µM): 94% and 93%; raw luminescence reading (RS4:11 cells; 3.125 nM, single wells): 9731 and 10360 and 11130 and 12480 and 11890 and 12850; inhibition rate (RS4:11 cells; 3.125 nM, single wells, listed as ABT199, 0.003125 µM): 97%; raw luminescence reading (RS4:11 cells; 6.25 nM, single wells): 514.1 and 705.1 and 803.0 and 736.8 and 691.7 and 772.7; raw luminescence reading (RS4:11 cells; 12.5 nM, single wells): 355.5 and 246.5 and 256.3 and 381.9 and 264.2 and 272.2; raw luminescence reading (RS4:11 cells; 25 nM, single wells): 183.0 and 151.3 and 145.9 and 222.1 and 185.6 and 197.7; raw luminescence reading (RS4:11 cells; 50 nM, single wells): 222.3 and 165.6 and 152.2 and 216.6 and 173.6 and 195.6; IC50 (Daudi cells; 48 h treatment, CellTiter-Glo): 9.1 ± 0.4 µM; inhibition relative to 0 uM control, replicates (Daudi cells; 0.78125 uM): -8% and 9% and -10% and 0.517% and -5.68% and 2.67%; raw viability signal, replicates (Daudi cells; 0.78125 uM): 1603 and 1350 and 1637 and 1476 and 1568 and 1444; inhibition relative to 0 uM control, replicates (Daudi cells; 1.5625 uM): 2.61% and -1.71% and 13% and -2.52% and -11% and 4.63%; raw viability signal, replicates (Daudi cells; 1.5625 uM): 1445 and 1509 and 1291 and 1521 and 1645 and 1415; inhibition relative to 0 uM control, replicates (Daudi cells; 3.125 uM): 2% and 16% (2×) and 13% and 9% and 19%; raw viability signal, replicates (Daudi cells; 3.125 uM): 1454 and 1252 and 1287 and 1241 and 1349 and 1200; inhibition relative to 0 uM control, replicates (Daudi cells; 6.25 uM): 29% and 42% and 9% and 30% and 46% and 26%; raw viability signal, replicates (Daudi cells; 6.25 uM): 1056 and 861.7 and 1353 and 1036 and 800.8 and 1094; inhibition relative to 0 uM control, replicates (Daudi cells; 12.5 uM): 77% and 57% and 48% and 71% and 73% and 72%; raw viability signal, replicates (Daudi cells; 12.5 uM): 335.5 and 640.9 and 766.9 and 436.4 and 400.1 and 410.0; inhibition relative to 0 uM control, replicates (Daudi cells; 25 uM): 93% (2×) and 70% and 85% and 88% and 97%
